Measured values taken from PubChem BioAssay (NCI).
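The concentration for 50% growth inhibition is given as GI50. At the TGI there is no net growth.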

Experiments:
Assay in all cases: DTP human tumour cell line panel, 384-well format
[1] = test system: NCI-H226 lung
[2] = test system: NCI-H23 lung
[3] = test system: NCI-H322M lung
[4] = test system: NCI-H460 NSCLC
[5] = test system: NCI-H522 lung
[6] = test system: NCI/ADR-RES ovarian
[7] = test system: OVCAR-3 ovarian
[8] = test system: OVCAR-4 ovarian
[9] = test system: OVCAR-5 ovarian
[10] = test system: OVCAR-8 ovarian
[11] = test system: PC-3 prostate
[12] = test system: RPMI-8226 leukemia
[13] = test system: RXF 393 renal
[14] = test system: SF-268 CNS
[15] = test system: SF-295 CNS
[16] = test system: SF-539 CNS
[17] = test system: SK-MEL-2 melanoma
[18] = test system: SK-MEL-28 melanoma
[19] = test system: SK-MEL-5 melanoma
[20] = test system: SK-OV-3 ovarian
[21] = test system: SN12C renal
[22] = test system: SNB-19 CNS
[23] = test system: SNB-75 CNS
[24] = test system: SW-620 colon
[25] = test system: T-47D breast
[26] = test system: TK-10 renal
[27] = test system: U251 glioblastoma
[28] = test system: UACC-257 melanoma
[29] = test system: UACC-62 melanoma
[30] = test system: UO-31 renal

C[C@]12O[C@H](C[C@]1(O)CO)n1c3ccccc3c3c4c(c5c6ccccc6n2c5c31)CNC4=O
TGI [1]: 734 nM
GI50 [2]: 24.1 nM
TGI [2]: 311 nM
GI50 [3]: 584 nM
TGI [3]: 2140 nM
GI50 [4]: 34.8 nM
TGI [4]: 1090 nM
GI50 [5]: < 10 nM
TGI [5]: 111 nM
GI50 [6]: 1200 nM
TGI [6]: 2460 nM
GI50 [7]: 157 nM
TGI [7]: 1280 nM
GI50 [8]: 1380 nM
TGI [8]: 3200 nM
GI50 [9]: 122 nM
TGI [9]: 1900 nM
GI50 [10]: 96.5 nM
TGI [10]: 275 nM
GI50 [11]: 100 nM
TGI [11]: 1860 nM
GI50 [12]: 11.6 nM
TGI [12]: 39.8 nM
GI50 [13]: < 10 nM
TGI [13]: 49.6 nM
GI50 [14]: 44.2 nM
TGI [14]: 1400 nM
GI50 [15]: 44.7 nM
TGI [15]: 1260 nM
GI50 [16]: 24.2 nM
TGI [16]: 276 nM
GI50 [17]: < 10 nM
TGI [17]: 84.7 nM
GI50 [18]: 35.8 nM
TGI [18]: 453 nM
GI50 [19]: < 10 nM
TGI [19]: 145 nM
GI50 [20]: < 10 nM
TGI [20]: 627 nM
GI50 [21]: < 10 nM
TGI [21]: 458 nM
GI50 [22]: 341 nM
TGI [22]: 1850 nM
GI50 [23]: 143 nM
TGI [23]: 1160 nM
GI50 [24]: 41.6 nM
TGI [24]: 1450 nM
GI50 [25]: 456 nM
TGI [25]: 4260 nM
GI50 [26]: < 10 nM
TGI [26]: 598 nM
GI50 [27]: 290 nM
TGI [27]: 1880 nM
GI50 [28]: 395 nM
TGI [28]: 1680 nM
GI50 [29]: < 10 nM
TGI [29]: 610 nM
GI50 [30]: 14.9 nM
TGI [30]: 1160 nM
